Measurements from paper PMC4281220, “Antibacterial Activity of Novel Cationic Peptides against Clinical Isolates of Multi-Drug Resistant Staphylococcus pseudintermedius from Infected Dogs” (PLoS ONE, 2014).
≈ marks a conversion by molar mass, not a printed value. Read-outs that look alike come from different tables or passages of the source. Non-standard residues stand in square brackets, D forms with d. Residues, ends and D or L forms follow the SMILES beside them.

Legend:
[1] = test system: macrophage-like cell line (J774A.1); assay: Cytotoxicity, MTS assay, J774A.1; type: cell-based
[2] = test system: S. pseudintermedius strains; type: cell-based, Staphylococcus pseudintermedius; details: for GM MIC S. pseudintermedius: 24 h
Description: The broth microdilution technique was used to determine the minimum inhibitory concentrations (MIC) of peptides and antibiotics in MHB in accordance with the Clinical and Laboratory Standards Institute (CLSI) guidelines. Peptides were dissolved in sterile distilled water containing 0.02% acetic acid. MIC assays were carried out with an initial bacterial inoculum of 5×10^5 colony forming unit (CFU/ml). Peptides and antibiotics were added to Polystyrene 96 well plates (CytoOne, CC7672-7596) at desired concentrations and plates were incubated for 24 hr at 37°C. MIC was defined as the lowest concentration of peptide which inhibited the visible growth of bacteria. MIC was done in triplicates and the highest value was reported.
(§1) Untreated cells were used as a negative control.

[3] = test system: human keratinocyte (HaCat); assay: Cytotoxicity, MTS assay, HaCat; type: cell-based; details: for IC50: 24 h
Description: as §1

[4] = test system: methicillin sensitive Staphylococcus pseudintermedius (MSSP) strains
Description: (§2) Forty isolates of S. pseudintermedius (30 MSSP and 10 MRSP) identified at the Indiana Animal Disease Diagnostic laboratory from specimens collected from dogs admitted to the small animal teaching hospital at Purdue University were included in the study (Tables 2 and 3). […] Vitek identification of S. pseudintermedius was confirmed by a positive coagulase test. Antimicrobial susceptibility was determined by broth microdilution using the SensiTitre (Trek).
(§3) The broth microdilution technique was used to determine the minimum inhibitory concentrations (MIC) of peptides and antibiotics in MHB in accordance with the Clinical and Laboratory Standards Institute (CLSI) guidelines. Peptides were dissolved in sterile distilled water containing 0.02% acetic acid. […] MIC was defined as the lowest concentration of peptide which inhibited the visible growth of bacteria. MIC was done in triplicates and the highest value was reported.

[5] = test system: methicillin resistant Staphylococcus pseudintermedius (MRSP) strains
Description: as §2, §3

SP3 [6] = assay: Growth kinetics (culture turbidity, OD600); type: cell-based, Staphylococcus pseudintermedius; details: SP3, 5 X MIC, MHB, OD600, within the same time frame (7 hours)
Description: The turbidity of bacterial culture after exposure to peptides was measured as described previously. Briefly, logarithmic growth of SP 3 was diluted in MHB to reach OD600≈0.25. One mL of diluted bacteria was added to a plastic cuvette (light path 1 cm). Peptides and antibiotics were added to cuvettes at a concentration equivalent to 5 X MIC as determined in antibacterial assays above. Cuvettes were incubated aerobically at 37°C. At specific time points, OD was measured at 600 nm wavelength by spectrophotometer. Cuvettes containing MHB without bacteria and with the same concentrations of peptide or antibiotic served as blanks. Nisin at 5 X MIC and untreated bacteria were used as positive and negative controls, respectively. The assay was repeated twice and the average was reported.

MRSP (SP3) = assay: Time kill assay; type: cell-based, Staphylococcus pseudintermedius; details: SP3, 5X MIC, MHB
Description: One strain of MRSP (SP3) was grown overnight in MHB, then diluted in fresh MHB and incubated for 2 hr until logarithmic growth phase was achieved. Then bacteria were centrifuged and washed twice with phosphate buffered saline (PBS) and adjusted to ∼5×10^5 CFU/ml in MHB. […] Aliquots at specified time points were taken, serially diluted in PBS and plated in triplicate on MHA. CFUs were counted after incubation of plates for 24 hr at 37°C.

[7] = test system: S. pseudintermedius (SP6); type: cell-based, Staphylococcus pseudintermedius; details: SP6, serial passages at 1/2 X MIC
Description: Results were expressed as the ratio of MIC value after each passage compared to the initial MIC value.

[8] = test system: Staphylococcus pseudintermedius (SP3); type: cell-based
Description: The synergistic effect between peptides and antimicrobial agents was determined by the combination assay as described previously. Peptide MICs against SP3 were determined in triplicate. […] Additive was defined as an FIC index of 1. Antagonism was defined as an FIC index of >4.

[9] = test system: mammalian or microbial proteases; details: effect of the D-amino acids substitution; cited from earlier work
Description: WR-12 is a broad-spectrum AMP and consists exclusively of arginine and tryptophan, arranged to form idealized amphipathic helices. […] Additionally, the D-amino acids ...

[10] = test system: mammalian cells (J774A.1 and HaCat); assay: Cytotoxicity, MTS assay, statement for both cell lines; details: 24 hours
Description: Peptides were assayed at different concentrations against macrophage-like cell line (J774A.1) and human keratinocyte (HaCat) to determine the potential toxic effect in vitro. […] Untreated cells were used as a negative control. […] After incubation, the cells were washed three times with PBS and the media in each well were replaced with 100 µL of DMEM media and 20 µL of assay reagent, MTS 3-(4,5-dimethylthiazol-2-yl)-5-(3-carboxymethoxyphenyl)-2-(4-sulfophenyl)-2H-tetrazolium) (Promega, Madison, WI, USA). The cells were incubated further for 4 h at 37°C. Corrected absorbance readings (actual absorbance readings for each treatment subtracted from background absorbance) were taken using a kinetic ELISA microplate reader (Molecular Devices, Sunnyvale, CA, USA). Cell viability was expressed as percentage of absorbance in comparison to negative control, untreated cells.
Cytotoxicity data were subjected to statistical analysis using GraphPad Prism 6.0 (GraphPad Software, La Jolla, CA). Cytotoxicity data were analyzed using one-way ANOVA, with post hoc Tukey's multiple comparisons test. P-values of <0.01 were considered significant.

SP3 [11] = assay: Bacterial membrane permeability (propidium iodide fluorescence); type: cell-based, Staphylococcus pseudintermedius; details: SP3, 5X MIC, 10 µM propidium iodide, 30 minutes; in comparison to (KFF)3K, WR-12 and penetratin
Description: Bacterial membrane damage was assessed by fluorescence change of propidium iodide dye as described previously. Briefly, SP3 was grown in MHB to logarithmic phase of growth then diluted to OD600≈0.25. Propidium iodide was mixed with bacteria to a final concentration of 10 µM. […] The percentage of membrane permeabilization was calculated as the percent of fluorescent intensity of peptide-treated samples with respect to fluorescence intensity of propidium iodide-loaded, peptide untreated samples.

[12] = compound serially diluted in the presence of (KFF)3K fixed at one-quarter of its MIC
[13] = compound serially diluted in the presence of IK8 “D isoform” fixed at one-quarter of its MIC
[14] = compound serially diluted in the presence of Penetratin fixed at one-quarter of its MIC
[15] = compound serially diluted in the presence of RR fixed at one-quarter of its MIC
[16] = compound serially diluted in the presence of RRIKA fixed at one-quarter of its MIC
[17] = compound serially diluted in the presence of WR-12 fixed at one-quarter of its MIC

Compound	IC50 ([1]; 24 h)	TI (Therapeutic index) J774A.1 ([1]; 24 h)	GM MIC S. pseudintermedius [2]	IC50 [3]	MIC50 [4]	MIC90 [4]	MIC50 [5]	MIC90 [5]	other results
NCCCC[C@H](NC(=O)[C@H](Cc1ccccc1)NC(=O)[C@H](Cc1ccccc1)NC(=O)[C@H](CCCCN)NC(=O)[C@H](Cc1ccccc1)NC(=O)[C@H](Cc1ccccc1)NC(=O)[C@H](CCCCN)NC(=O)[C@H](Cc1ccccc1)NC(=O)[C@H](Cc1ccccc1)NC(=O)[C@@H](N)CCCCN)C(N)=O [(KFF)3K] (H-KFFKFFKFFK-NH2)	256 µM	33/>33	7.75 µM	> 256 µM	8 µM (≈ 11.3 µg/mL)	16 µM (≈ 22.6 µg/mL)	4 µM (≈ 5.65 µg/mL)	8 µM (≈ 11.3 µg/mL)	
NCC[C@H](O)C(=O)N[C@@H]1C[C@H](N)[C@@H](O[C@H]2O[C@H](CN)[C@@H](O)[C@H](O)[C@H]2O)[C@H](O)[C@H]1O[C@H]1O[C@H](CO)[C@@H](O)[C@H](N)[C@H]1O [Amikacin, amikacin hydrate]									effect on culture turbidity (SP3 [6]): did not reduce the culture turbidity; log10 reduction after 12 hours incubation (MRSP (SP3)): 3 log10; log10 reduction within 3 hours (MRSP (SP3); 37°C): less than one log10 reduction; time after which bactericidal activity was demonstrated (MRSP (SP3); data not shown): 12 h; passage at which shift (doubling) of the MIC began [7]: 4 passage; fold increase in the MIC by passage 10 ([7]; ratio to the initial MIC): 32 fold; FIC index [8, 12]: 0.37; FIC index [8, 13]: 0.75; FIC index [8, 14]: 0.75; FIC index [8, 15]: 0.75; FIC index [8, 16]: 1; FIC index [8, 17]: 1
O=C(O)c1cn(C2CC2)c2cc(N3CCNCC3)c(F)cc2c1=O [Ciprofloxacin, ciprofloxacin]									effect on culture turbidity (SP3 [6]): did not reduce the culture turbidity
CNC(C)C1CCC(N)C(OC2C(N)CC(N)C(OC3OCC(C)(O)C(NC)C3O)C2O)O1 (stereo not shown) [Gentamicin]									FIC index [8, 12]: 0.26; FIC index [8, 13]: 1; FIC index [8, 14]: 1; FIC index [8, 15]: 0.75; FIC index [8, 16]: 1; FIC index [8, 17]: 0.75
CC[C@@H](C)[C@@H](N)C(=O)N[C@H](CCCNC(=N)N)C(=O)N[C@@H](C(=O)N[C@H](CCCCN)C(=O)N[C@@H](C(=O)N[C@H](CCCNC(=N)N)C(=O)N[C@@H](C(=O)N[C@H](CCCCN)C(=O)O)[C@H](C)CC)[C@H](C)CC)[C@H](C)CC [IK8 “D isoform”] (H-[dI][dR][dI][dK][dI][dR][dI][dK]-OH)	> 256 µM	>51.2/>51.2	5 µM	> 256 µM	4 µM (≈ 4.16 µg/mL)	8 µM (≈ 8.32 µg/mL)	4 µM (≈ 4.16 µg/mL)	4 µM (≈ 4.16 µg/mL)	proteolytic degradation by mammalian or microbial proteases [9]: prevented proteolytic degradation
CC[C@H](C)[C@H](NC(=O)CN)C(=O)NCC(=O)N[C@@H](C)C(=O)N[C@H](C(=O)N[C@@H](CC(C)C)C(=O)N[C@@H](CCCCN)C(=O)N[C@H](C(=O)N[C@@H](CC(C)C)C(=O)N[C@H](C(=O)N[C@H](C(=O)NCC(=O)N[C@@H](CC(C)C)C(=O)N1CCC[C@H]1C(=O)N[C@@H](C)C(=O)N[C@@H](CC(C)C)C(=O)N[C@H](C(=O)N[C@@H](CO)C(=O)N[C@@H](Cc1c[nH]c2ccccc12)C(=O)N[C@H](C(=O)N[C@@H](CCCCN)C(=O)N[C@@H](CCCNC(=N)N)C(=O)N[C@@H](CCCCN)C(=O)N[C@@H](CCCNC(=N)N)C(=O)N[C@@H](CCC(N)=O)C(=O)N[C@@H](CCC(N)=O)C(N)=O)[C@@H](C)CC)[C@@H](C)CC)[C@@H](C)O)[C@@H](C)O)C(C)C)C(C)C [Melittin, melittin, reference compound]									IC50 ([1]; MTS assay, 24 hours treatment, 8 to 256 µM, DMEM 10% FBS, concentration that inhibits 50% of cells, read-out: IC50 J774A.1): 2 µM; concentration toxic to J774A.1 ([1]; MTS assay, positive control, 24 hours, P<0.01): 5 µM; MIC ([2]; MIC of the melittin, strain not stated): 5 µM
CC[C@H](C)[C@H](NC(=O)[C@H](CCCNC(=N)N)NC(=O)[C@H](CCCNC(=N)N)NC(=O)[C@H](CC(C)C)NC(=O)[C@H](Cc1c[nH]c2ccccc12)NC(=O)[C@H](C)NC(=O)[C@H](CCCCN)NC(=O)[C@@H](NC(=O)[C@H](CCCNC(=N)N)NC(=O)[C@H](CCCNC(=N)N)NC(=O)[C@H](CC(C)C)NC(=O)[C@@H](N)Cc1c[nH]c2ccccc12)[C@@H](C)CC)C(=O)N[C@@H](CCCCN)C(=O)N[C@@H](C)C(=O)O [RRIKA]	64 µM	55.6	1.15 µM	128 µM	1 µM (≈ 1.87 µg/mL)	2 µM (≈ 3.73 µg/mL)	1 µM (≈ 1.87 µg/mL)	1 µM (≈ 1.87 µg/mL)	TI (Therapeutic index) HaCat ([3]; ratio of the IC50 over the geometric mean MIC value): 111.2
CC[C@H](C)[C@H](NC(=O)[C@H](CCCNC(=N)N)NC(=O)[C@H](CCCNC(=N)N)NC(=O)[C@H](CC(C)C)NC(=O)[C@@H](N)Cc1c[nH]c2ccccc12)C(=O)N[C@@H](CCCCN)C(=O)N[C@@H](C)C(=O)N[C@@H](Cc1c[nH]c2ccccc12)C(=O)N[C@@H](CC(C)C)C(=O)N[C@@H](CCCNC(=N)N)C(=O)N[C@@H](CCCNC(=N)N)C(=O)O [RR] (H-WLRRIKAWLRR-OH)									concentration up to which not toxic to mammalian cells [10]: up to 64 µM
N=C(N)NCCC[C@H](NC(=O)[C@H](CCCNC(=N)N)NC(=O)[C@H](Cc1c[nH]c2ccccc12)NC(=O)[C@H](Cc1c[nH]c2ccccc12)NC(=O)[C@H](CCCNC(=N)N)NC(=O)[C@H](CCCNC(=N)N)NC(=O)[C@H](Cc1c[nH]c2ccccc12)NC(=O)[C@H](Cc1c[nH]c2ccccc12)NC(=O)[C@H](CCCNC(=N)N)NC(=O)[C@H](Cc1c[nH]c2ccccc12)NC(=O)[C@H](Cc1c[nH]c2ccccc12)NC(=O)[C@@H](N)CCCNC(=N)N)C(=O)O [WR-12] (H-RWWRWWRRWWRR-OH)	128 µM	85.3/85.3	1.5 µM	128 µM	1 µM (≈ 2.07 µg/mL)	2 µM (≈ 4.14 µg/mL)	0.5 µM (≈ 1.04 µg/mL)	2 µM (≈ 4.14 µg/mL)	
Nisin									membrane perturbation, propidium iodide fluorescence (comparison in words) (SP3 [11]): faster and more potent at membrane perturbation
